Results on 1 compound are retold here after patent US20130061339A1, “METHOD OF DIAGNOSING TRICHOTILLOMANIA AND SIMILAR DISORDERS IN HUMANS AND RODENTS” (Purdue Research Foundation, priority 2011, published 2013).

Assay [1] concerns trichotillomania patients. The following applies: 50 trichotillomania patients, randomized double-blind placebo study [2]; cited from earlier work.
In assay [2] the test system is barbering behavior in C57BL/6J mice. The assay is described as follows: barbering in mice after 24 weeks of feed supplemented with NAC. The class given is in vivo, mouse. Conditions: NAC 1 g/kg/day in feed, vs mice not treated with NAC, P=0.0152. The source says: (§1) Thirty-two female adult C57BL/6J mice (14 barbers and 18 non-barbers) were separated into cages with no barbers, and cages with at least one barber. Cages with no barbers were fed a diet to induce barbering, as per Dufour, et al.. Cages with barbers were fed a regular mouse diet. Half the cages in each group had their feed supplemented with NAC, at a dose of 1 g/kg/day per mouse. Urine was collected at baseline and 24 weeks, to measure: reductive capacity, which reflects the sum of unused antioxidants from the diet, and antioxidants produced to defend the body. The level of 8 hydroxy-2-deoxyguanosine (8-OH-dG) which measures DNA damage from ongoing oxidative stress was also measured at 24 weeks only. Urine concentration was controlled by measuring creatinine. Six animals provided urine too dilute for analysis. Barbering and patterns of hair loss were recorded every 2 weeks. Data were analyzed using generalized linear model (GLM) and logistic regression using JMP statistical software, available from SAS, Cary N.C.

Assay [3] in a line: standardized reductive capacity of urine after treatment. It is filed as in vivo, mouse. Conditions: 24 weeks, NAC 1 g/kg/day in feed, mice that were and were not barbers at the start; P=0.0244.
From the text: as §1

As for `CC(=O)N[C@@H](CS)C(=O)O` [NAC, N-acetylcysteine], the “patients in whom symptoms were reduced” value in assay [1] is recorded as 56%. In addition, in assay [2] (mice that were barbers at the start, regular diet), the “proportion of mice barbering after 24 weeks of treatment (curative effect)” value was “fewer mice treated with NAC were barbering”. In assay [2] (mice that were not barbers at the start, barbering-inducing diet), the “proportion of mice barbering after 24 weeks of treatment (preventative effect)” value is given as “fewer mice treated with NAC were barbering”. Besides, in assay [3], the “standardized reductive capacity of urine after treatment” value is given as “only increases reductive capacity in healthy mice”.
